Experimental data from patent US20020192703A1, “Immunoassay reagents and methods for determination of LSD and LSD metabolites” (priority 1995, published 2002).
Where a name gives a salt, the structure may show the parent alone. Read-outs that look alike come from different tables or passages of the source.

Assays:
monoclonal antibody 19A7 = format: binding, mice
Method: Cross-reactivity was tested by spiking various potential cross-reactants into human urine containing a preservative.

[1] = Dilution analysis of sample containing LSD metabolite, CEDIA; format: binding; conditions: for LSD ng/ml CEDIA: LSD equivalents
Method: (§1) In the following experiment, the results of the CEDIA® are compared with those of the DPC assay, and with those obtained using the Abuscreen® radioimmunoassay by Roche. While the amount of metabolite in the sample is not known in absolute terms, the behavior is tested by dilution analysis. Results are given in terms of LSD equivalents.

[2] = Dilution analysis of sample containing LSD metabolite, DPC RIA; format: binding; conditions: LSD equivalents
Method: as §1

[3] = Dilution analysis of sample containing LSD metabolite, Abuscreen RIA (Roche); format: binding; conditions: LSD equivalents
Method: as §1

[4] = Concentration Added 10,000 ng/ml, 100 × observed dose / concentration added
[5] = Concentration Added 10,000 ng/ml, in human urine
[6] = Concentration Added 500,000 ng/ml, 100 × observed dose / concentration added
[7] = Concentration Added 500,000 ng/ml, in human urine
[8] = Concentration Added 100,000 ng/ml, 100 × observed dose / concentration added
[9] = Concentration Added 100,000 ng/ml, in human urine
[10] = sample containing the metabolite, essentially free of LSD parent by GC/MS, undiluted
[11] = Concentration Added 50,000 ng/ml, 100 × observed dose / concentration added
[12] = Concentration Added 50,000 ng/ml, in human urine

SMILES: CCN(CC)C(=O)[C@@H]1C=C2c3cccc4c3C(O)(C[C@H]2N(C)C1)C(=O)N4 (stereo partly shown) [2oxo-3hydroxy LSD]
- % Cross-Reactivity (monoclonal antibody 19A7; Concentration Added 30 ng/ml, 100 × observed dose / concentration added): 1.82%
- Concentration Observed (monoclonal antibody 19A7; Concentration Added 30 ng/ml, in human urine): 0.55 ng/mL

SMILES: CCCCCc1cc(O)c2c(c1)OC(C)(C)[C@@H]1CCC(C(=O)O)=C[C@@H]21 [11-nor-Δ^9-THC-COOH]
- % Cross-Reactivity (monoclonal antibody 19A7; [4]): <0.0001%
- Concentration Observed (monoclonal antibody 19A7; [5]): 0.0 ng/mL

SMILES: CC(=O)Oc1ccccc1C(=O)O [Acetylsalicylic Acid]
- % Cross-Reactivity (monoclonal antibody 19A7; [6]): <0.00001%
- Concentration Observed (monoclonal antibody 19A7; [7]): 0.0 ng/mL

SMILES: CC(C)C[C@H]1C(=O)N2CCC[C@H]2[C@]2(O)O[C@](NC(=O)[C@@H]3C=C4c5cccc6[nH]cc(c56)C[C@H]4N(C)C3)(C(C)C)C(=O)N12 [Alpha Ergotryptine]
- % Cross-Reactivity (monoclonal antibody 19A7; [6]): 0.00000%
- Concentration Observed (monoclonal antibody 19A7; [7]): 0.25 ng/mL

SMILES: CC1(C)S[C@@H]2[C@H](NC(=O)[C@H](N)c3ccc(O)cc3)C(=O)N2[C@H]1C(=O)O [Amoxicillin]
- % Cross-Reactivity (monoclonal antibody 19A7): <0.00001%
- Concentration Observed (monoclonal antibody 19A7): 0.0 ng/mL

SMILES: CC(N)Cc1ccccc1 (stereo not shown) [Amphetamine]
- % Cross-Reactivity (monoclonal antibody 19A7; [6]): <0.00001%
- Concentration Observed (monoclonal antibody 19A7; [7]): 0.0 ng/mL

SMILES: CN1[C@H]2CC[C@@H]1[C@@H](C(=O)O)[C@@H](OC(=O)c1ccccc1)C2 [Benzoylecgonine]
- % Cross-Reactivity (monoclonal antibody 19A7; [6]): <0.00001%
- Concentration Observed (monoclonal antibody 19A7; [7]): 0.0 ng/mL

SMILES: C[C@H](CS)C(=O)N1CCC[C@H]1C(=O)O [Captopril]
- % Cross-Reactivity (monoclonal antibody 19A7; [6]): <0.00001%
- Concentration Observed (monoclonal antibody 19A7; [7]): 0.0 ng/mL

SMILES: CN/C(=N/CCSCc1nc[nH]c1C)NC#N [Cimetidine]
- % Cross-Reactivity (monoclonal antibody 19A7): <0.00001%
- Concentration Observed (monoclonal antibody 19A7): 0.0 ng/mL

SMILES: COc1ccc2c3c1O[C@H]1[C@@H](O)C=C[C@H]4[C@@H](C2)N(C)CC[C@@]341 [Codeine]
- % Cross-Reactivity (monoclonal antibody 19A7; [6]): <0.00001%
- Concentration Observed (monoclonal antibody 19A7; [7]): 0.0 ng/mL

SMILES: CN1C(=O)CN=C(c2ccccc2)c2cc(Cl)ccc21 [Diazepam]
- % Cross-Reactivity (monoclonal antibody 19A7): <0.00001%
- Concentration Observed (monoclonal antibody 19A7): 0.0 ng/mL

SMILES: C[C@H]1O[C@@H](O[C@H]2[C@@H](O)C[C@H](O[C@H]3[C@@H](O)C[C@H](O[C@H]4CC[C@@]5(C)[C@H](CC[C@@H]6[C@@H]5C[C@@H](O)[C@]5(C)[C@@H](C7=CC(=O)OC7)CC[C@]65O)C4)O[C@@H]3C)O[C@@H]2C)C[C@H](O)[C@@H]1O [Digoxin]
- % Cross-Reactivity (monoclonal antibody 19A7; [8]): <0.00001%
- Concentration Observed (monoclonal antibody 19A7; [9]): 0.0 ng/mL

SMILES: CN1C[C@H](C(=O)N[C@]2(C)O[C@@]3(O)[C@@H]4CCCN4C(=O)[C@H](Cc4ccccc4)N3C2=O)C[C@@H]2c3cccc4[nH]cc(c34)C[C@H]21 [Dihydroergotaimine]
- % Cross-Reactivity (monoclonal antibody 19A7; Concentration Added 125,000 ng/ml, 100 × observed dose / concentration added): 0.00005%
- Concentration Observed (monoclonal antibody 19A7; Concentration Added 125,000 ng/ml, in human urine): ≦0.01 ng/mL

SMILES: COC(=O)[C@@H]1[C@H]2CC[C@@H](C[C@@H]1O)N2C [Ecogonine Methyl Ester]
- % Cross-Reactivity (monoclonal antibody 19A7; [8]): 0.00000%
- Concentration Observed (monoclonal antibody 19A7; [9]): ≦0.01 ng/mL

SMILES: CN1[C@H]2CC[C@@H]1[C@@H](C(=O)O)[C@@H](O)C2 [Ecogonine]
- % Cross-Reactivity (monoclonal antibody 19A7; [8]): 0.00000%
- Concentration Observed (monoclonal antibody 19A7; [9]): ≦0.01 ng/mL

SMILES: CCOC(=O)[C@H](CCc1ccccc1)N[C@@H](C)C(=O)N1CCC[C@H]1C(=O)O [Enalapril]
- % Cross-Reactivity (monoclonal antibody 19A7; [6]): <0.00001%
- Concentration Observed (monoclonal antibody 19A7; [7]): 0.0 ng/mL

SMILES: C[C@@H](CO)NC(=O)[C@@H]1C=C2c3cccc4[nH]cc(c34)C[C@H]2N(C)C1 [Ergonovine]
- % Cross-Reactivity (monoclonal antibody 19A7; [4]): 0.007%
- Concentration Observed (monoclonal antibody 19A7; [5]): 0.58 ng/mL

SMILES: CN1C[C@H](C(=O)N[C@]2(C)O[C@@]3(O)[C@@H]4CCCN4C(=O)[C@H](Cc4ccccc4)N3C2=O)C=C2c3cccc4[nH]cc(c34)C[C@H]21 [Ergotamine]
- % Cross-Reactivity (monoclonal antibody 19A7; [8]): 0.00000%
- Concentration Observed (monoclonal antibody 19A7; [9]): ≦0.01 ng/mL

SMILES: CNCCC(Oc1ccc(C(F)(F)F)cc1)c1ccccc1 (stereo not shown) [Fluoxetine]
- % Cross-Reactivity (monoclonal antibody 19A7; Concentration Added 400000 ng/mL, 100 × observed dose / concentration added): 0.00012%
- Concentration Observed (monoclonal antibody 19A7; Concentration Added 400000 ng/mL, in human urine): 0.48 ng/mL

SMILES: CC(C)Cc1ccc(C(C)C(=O)O)cc1 (stereo not shown) [Ibuprofen]
- % Cross-Reactivity (monoclonal antibody 19A7; [6]): <0.00001%
- Concentration Observed (monoclonal antibody 19A7; [7]): 0.0 ng/mL

SMILES: CCN(CC)C(=O)[C@H]1C=C2c3cccc4[nH]cc(c34)C[C@H]2N(C)C1 [Iso LSD]
- % Cross-Reactivity (monoclonal antibody 19A7; Concentration Added 2,500 ng/ml, 100 × observed dose / concentration added): 0.04%
- Concentration Observed (monoclonal antibody 19A7; Concentration Added 2,500 ng/ml, in human urine): 0.93 ng/mL

SMILES: CCN(CC)C(=O)[C@@H]1C=C2c3cccc4c3C(O)(C[C@H]2N(C)C1)C(=O)N4 (stereo partly shown) [LSD Metabolite]
- recognition of the metabolite by reagents of the invention relative to the Abuscreen assay ([1]; CEDIA versus Abuscreen RIA): about 2.5 fold
- recognition of the metabolite by reagents of the invention relative to the DPC assay ([1]; CEDIA versus DPC RIA): about 10 fold
- LSD ng/ml CEDIA ([1]; metabolite sample diluted 1:3): 0.50 ng/mL
- LSD ng/ml CEDIA [1, 10]: 1.32 ng/mL
- LSD ng/ml DPC RIA ([2]; metabolite sample diluted 1:3): 0.03 ng/mL
- LSD ng/ml DPC RIA [2, 10]: 0.14 ng/mL
- LSD ng/ml Abuscreen RIA ([3]; metabolite sample diluted 1:3): 0.23 ng/mL
- LSD ng/ml Abuscreen RIA [3, 10]: 0.62 ng/mL

SMILES: N[C@@H](Cc1cc(I)c(Oc2cc(I)c(O)c(I)c2)c(I)c1)C(=O)O [Levothyroxine (T4), Levothyroxine]
- % Cross-Reactivity (monoclonal antibody 19A7; [11]): <0.0001%
- Concentration Observed (monoclonal antibody 19A7; [12]): 0.0 ng/mL

SMILES: CN1C[C@H](C(=O)O)C=C2c3cccc4[nH]cc(c34)C[C@H]21 [Lysergic Acid]
- % Cross-Reactivity (monoclonal antibody 19A7): 0.00000%
- Concentration Observed (monoclonal antibody 19A7): ≦0.01 ng/mL

SMILES: CN1C[C@H](CO)C=C2c3cccc4[nH]cc(c34)C[C@H]21 [Lysergol]
- % Cross-Reactivity (monoclonal antibody 19A7; Concentration Added 5,000 ng/ml, 100 × observed dose / concentration added): 0.00034%
- Concentration Observed (monoclonal antibody 19A7; Concentration Added 5,000 ng/ml, in human urine): 0.01 ng/mL

SMILES: CN[C@@H](C)Cc1ccccc1 [Methamphetamine]
- % Cross-Reactivity (monoclonal antibody 19A7; Concentration Added 200000 ng/mL, 100 × observed dose / concentration added): 0.00019%
- Concentration Observed (monoclonal antibody 19A7; Concentration Added 200000 ng/mL, in human urine): 0.45 ng/mL

SMILES: CC[C@@H](CO)NC(=O)[C@@H]1C=C2c3cccc4c3c(cn4C)C[C@H]2N(C)C1 [Methysergide Maleate]
- % Cross-Reactivity (monoclonal antibody 19A7; [11]): 0.00147%
- Concentration Observed (monoclonal antibody 19A7; [12]): 0.74 ng/mL

SMILES: CN1CC[C@]23c4c5ccc(O)c4O[C@H]2[C@@H](O)C=C[C@H]3[C@H]1C5 [Morphine]
- % Cross-Reactivity (monoclonal antibody 19A7): <0.00001%
- Concentration Observed (monoclonal antibody 19A7): 0.0 ng/mL

SMILES: c1ccc(C2(N3CCCCC3)CCCCC2)cc1 [Phencyclidine]
- % Cross-Reactivity (monoclonal antibody 19A7; [6]): 0.00002%
- Concentration Observed (monoclonal antibody 19A7; [7]): 0.11 ng/mL

SMILES: CN(C)CCc1c[nH]c2cccc(O)c12 [Psilocyn]
- % Cross-Reactivity (monoclonal antibody 19A7; [4]): 0.00000%
- Concentration Observed (monoclonal antibody 19A7; [5]): ≦0.01 ng/mL

SMILES: C=CCC1(C(C)CCC)C(=O)NC(=O)NC1=O (stereo not shown) [Secobarbital]
- % Cross-Reactivity (monoclonal antibody 19A7; [6]): <0.00001%
- Concentration Observed (monoclonal antibody 19A7; [7]): 0.0 ng/mL

SMILES: NCCc1c[nH]c2ccc(O)cc12 [Seretonine]
- % Cross-Reactivity (monoclonal antibody 19A7; Concentration Added 1,000,000 ng/ml, 100 × observed dose / concentration added): 0.00000%
- Concentration Observed (monoclonal antibody 19A7; Concentration Added 1,000,000 ng/ml, in human urine): ≦0.01 ng/mL

SMILES: Cc1ccc(C(=O)c2ccc(CC(=O)O)n2C)cc1 [Tolmetin]
- % Cross-Reactivity (monoclonal antibody 19A7; [6]): <0.00001%
- Concentration Observed (monoclonal antibody 19A7; [7]): 0.0 ng/mL

SMILES: N[C@@H](Cc1c[nH]c2ccccc12)C(=O)O [Tryptophan]
- % Cross-Reactivity (monoclonal antibody 19A7; [8]): 0.00000%
- Concentration Observed (monoclonal antibody 19A7; [9]): ≦0.01 ng/mL

SMILES: CCCN(C)C(=O)[C@@H]1C=C2c3cccc4[nH]cc(c34)C[C@H]2N(C)C1 [d-LAMPA, Lysergic acid methyl-propyl amide]
- % Cross-Reactivity (monoclonal antibody 19A7; Concentration Added 0.5 ng/ml, 100 × observed dose / concentration added): 58.7%
- Concentration Observed (monoclonal antibody 19A7; Concentration Added 0.5 ng/ml, in human urine): 0.29 ng/mL
